Laboratory results reported in ChEMBL document CHEMBL5528048, “Discovery of Novel Potent and Fast BTK PROTACs for the Treatment of Osteoclasts-Related Inflammatory Diseases” (J Med Chem, 2024).
The source made the active and inactive calls. No cut-off for these calls is given here.

Key:
[1] = AUC (0 to infinity) in Sprague-Dawley rat at 4 mg/kg, ip measured upto 48 hrs; format: ADME, organism-based; settings: in vivo
[2] = target: T1, Protein cereblon/Tyrosine-protein kinase BTK (Homo sapiens, UniProt Q06187+Q96SW2); test: PROTAC activity at BTK/CRBN in human MINO cells assessed as BTK protein degradation at 20 nM measured after 2 hrs by Western blotting analysis; format: cell-based
[3] = Apparent volume of distribution in Sprague-Dawley rat at 2 mg/kg, iv measured upto 48 hrs; format: ADME, organism-based; settings: in vivo, read-out: Vz
[4] = target: Tyrosine-protein kinase BTK (Homo sapiens, UniProt Q06187); test: Binding affinity to BTK (unknown origin) assessed as inhibition constant measured after 60 mins incubation by microtiter-plate reader
[5] = tested on: BMMC; test: Inhibition of osteoclastogenesis in C57BL/6J mouse BMM cells assessed as inhibition of mCSF/RANKL-stimulated matured osteoclast formation measured after 5 days co-incubation by tartrate-resistant acid phosphatase (TRAP) staining assay; format: functional, cell-based; settings: time 5.0 day
[6] = target: T2, Protein cereblon/Tyrosine-protein kinase BTK (Mus musculus) (UniProt P35991+Q8C7D2); test: PROTAC activity at BTK/CRBN in mCSF/RANKL-stimulated C57BL/6J mouse BMDM assessed as reduction in phosphorylated JNK protein level at 25 to 100 nM followed by stimulated with mCSF/RANKL measured after 2 hrs by Western blotting analysis; format: cell-based; settings: dose 25-100 nM
[7] = target: T2, Protein cereblon/Tyrosine-protein kinase BTK (Mus musculus); test: PROTAC activity at BTK/CRBN in mCSF/RANKL-stimulated C57BL/6J mouse BMDM assessed as reduction in phosphorylated PLCgamma2 protein level at 25 to 100 nM followed by stimulated with mCSF/RANKL measured after 2 hrs by Western blotting analysis; format: cell-based; settings: dose 25-100 nM
[8] = tested on: Mus musculus; test: Antiosteoclastogenic effects in LPS-soaked ligature-induced C57BL/6J mouse periodontal disease model assessed as reduction in periodontal alveolar bone loss by measuring distance between the alveolar bone crest (ABC) at 10 to 30 mg/kg, ip treated on day 0, 1,4, 7 and measured on day 10 by Micro-CT 3D scan; format: functional, organism-based; settings: dose 10-30 mg/kg, time 7.0 day
[9] = Clearance in Sprague-Dawley rat at 2mg/kg, iv measured upto 48 hrs; format: ADME, organism-based; settings: in vivo
[10] = AUC (0 to infinity) in Sprague-Dawley rat at 2 mg/kg, iv measured upto 48 hrs; format: ADME, organism-based; settings: in vivo
[11] = AUC (0 to t) in Sprague-Dawley rat at 2 mg/kg, iv measured upto 48 hrs; format: ADME, organism-based; settings: in vivo
[12] = tested on: BMMC; test: Cytotoxicity against C57BL/6J mouse BMM cells assessed as cell viability at 10 uM measured after 1 to 2 hrs by CCK8 assay; format: toxicity, cell-based; settings: time 1-2 hrs
[13] = target: T1, Protein cereblon/Tyrosine-protein kinase BTK; test: Binding affinity to BTK/CRBN (unknown origin) assessed as ternary complex formation by measuring peak concentration measured after 60 mins incubation by HTRF assay
[14] = AUC (0 to t) in Sprague-Dawley rat at 4 mg/kg, ip measured upto 48 hrs; format: ADME, organism-based; settings: in vivo
[15] = tested on: Mus musculus; test: Antiosteoclastogenic effects in LPS-soaked ligature-induced C57BL/6J mouse periodontal disease model assessed as reduction in periodontal alveolar bone loss at 30 mg/kg, ip treated on day 0, 1,4, 7 and measured on day 10 by Micro-CT 3D scan; format: functional, organism-based; settings: time 7.0 day
[16] = Cmax in Sprague-Dawley rat at 2 mg/kg, iv measured upto 48 hrs; format: ADME, organism-based; settings: in vivo
[17] = target: T1, Protein cereblon/Tyrosine-protein kinase BTK; test: PROTAC activity at BTK/CRBN in human MINO cells assessed as BTK protein degradation at 20 nM by Western blotting analysis; format: cell-based; settings: time lower 2.0 hrs, time upper […], TDE = time-dependent effect
[18] = tested on: BMMC; test: Inhibition of RANKKL-induced upregulation of osteoclast related genes in C57BL/6J mouse BMM cells assessed as reduction in mCSF/RANKL-stimulated NFATc1 gene expression at 25 to 100 nM followed by stimulated with mCSF/RANKL measured after 2 hrs by qPCR analysis; format: functional, cell-based; settings: dose 25-100 nM
[19] = Half life in Sprague-Dawley rat at 4 mg/kg, ip measured upto 48 hrs; format: ADME, organism-based; settings: in vivo
[20] = target: T2, Protein cereblon/Tyrosine-protein kinase BTK (Mus musculus); test: PROTAC activity at BTK/CRBN in mCSF/RANKL-stimulated C57BL/6J mouse BMDM assessed as reduction in phosphorylated ERK protein level at 25 to 100 nM followed by stimulated with mCSF/RANKL measured after 2 hrs by Western blotting analysis; format: cell-based; settings: dose 25-100 nM

T1 sequence (Q06187 2-659 limits assumed): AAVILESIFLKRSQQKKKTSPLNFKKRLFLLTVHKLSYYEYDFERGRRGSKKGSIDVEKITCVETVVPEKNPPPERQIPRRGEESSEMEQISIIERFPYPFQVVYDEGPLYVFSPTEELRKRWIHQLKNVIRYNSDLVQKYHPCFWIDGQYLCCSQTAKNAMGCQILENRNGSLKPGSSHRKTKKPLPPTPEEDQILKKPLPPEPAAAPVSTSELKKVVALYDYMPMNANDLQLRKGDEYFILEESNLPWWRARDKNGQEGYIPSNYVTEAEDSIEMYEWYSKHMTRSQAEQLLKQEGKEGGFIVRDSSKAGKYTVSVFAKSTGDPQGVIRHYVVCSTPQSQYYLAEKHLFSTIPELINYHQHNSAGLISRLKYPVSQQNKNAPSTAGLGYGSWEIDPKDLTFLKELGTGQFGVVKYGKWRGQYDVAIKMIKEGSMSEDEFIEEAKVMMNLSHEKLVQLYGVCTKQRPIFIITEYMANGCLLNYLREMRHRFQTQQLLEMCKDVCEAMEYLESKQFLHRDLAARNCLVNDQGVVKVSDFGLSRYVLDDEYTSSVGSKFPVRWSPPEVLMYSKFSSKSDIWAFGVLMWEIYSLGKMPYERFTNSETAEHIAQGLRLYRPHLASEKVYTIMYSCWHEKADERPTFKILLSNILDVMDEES
T1 sequence (Q96SW2 whole entry partner): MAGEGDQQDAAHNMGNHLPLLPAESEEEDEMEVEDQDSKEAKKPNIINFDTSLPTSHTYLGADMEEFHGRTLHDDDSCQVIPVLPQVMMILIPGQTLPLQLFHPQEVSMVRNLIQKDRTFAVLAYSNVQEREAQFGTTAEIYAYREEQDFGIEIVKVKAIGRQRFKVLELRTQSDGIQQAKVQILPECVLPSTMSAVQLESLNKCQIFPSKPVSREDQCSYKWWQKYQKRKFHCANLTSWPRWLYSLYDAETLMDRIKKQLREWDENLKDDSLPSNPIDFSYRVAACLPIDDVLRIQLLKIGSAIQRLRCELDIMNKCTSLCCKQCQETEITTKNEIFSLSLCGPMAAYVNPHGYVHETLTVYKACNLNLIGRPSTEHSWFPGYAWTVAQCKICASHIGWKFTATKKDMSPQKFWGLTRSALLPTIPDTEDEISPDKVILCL
T2 sequence (P35991 whole entry, looked up): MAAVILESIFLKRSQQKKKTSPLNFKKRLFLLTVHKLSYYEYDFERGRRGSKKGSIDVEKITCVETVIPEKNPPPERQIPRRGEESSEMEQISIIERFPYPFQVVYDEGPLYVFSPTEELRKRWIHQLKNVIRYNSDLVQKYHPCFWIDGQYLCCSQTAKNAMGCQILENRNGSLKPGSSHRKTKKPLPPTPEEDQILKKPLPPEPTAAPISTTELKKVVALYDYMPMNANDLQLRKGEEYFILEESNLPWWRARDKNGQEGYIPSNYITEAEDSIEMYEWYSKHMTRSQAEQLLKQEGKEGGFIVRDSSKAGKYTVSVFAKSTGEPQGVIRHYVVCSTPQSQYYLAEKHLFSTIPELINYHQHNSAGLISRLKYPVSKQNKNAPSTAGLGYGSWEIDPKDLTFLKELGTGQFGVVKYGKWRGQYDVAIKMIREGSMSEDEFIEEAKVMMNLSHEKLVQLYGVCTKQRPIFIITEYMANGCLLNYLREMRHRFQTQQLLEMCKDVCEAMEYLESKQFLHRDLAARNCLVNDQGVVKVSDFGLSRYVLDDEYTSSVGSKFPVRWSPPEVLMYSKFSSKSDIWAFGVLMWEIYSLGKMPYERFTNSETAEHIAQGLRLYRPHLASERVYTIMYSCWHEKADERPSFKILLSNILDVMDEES
T2 sequence (Q8C7D2 whole entry, looked up): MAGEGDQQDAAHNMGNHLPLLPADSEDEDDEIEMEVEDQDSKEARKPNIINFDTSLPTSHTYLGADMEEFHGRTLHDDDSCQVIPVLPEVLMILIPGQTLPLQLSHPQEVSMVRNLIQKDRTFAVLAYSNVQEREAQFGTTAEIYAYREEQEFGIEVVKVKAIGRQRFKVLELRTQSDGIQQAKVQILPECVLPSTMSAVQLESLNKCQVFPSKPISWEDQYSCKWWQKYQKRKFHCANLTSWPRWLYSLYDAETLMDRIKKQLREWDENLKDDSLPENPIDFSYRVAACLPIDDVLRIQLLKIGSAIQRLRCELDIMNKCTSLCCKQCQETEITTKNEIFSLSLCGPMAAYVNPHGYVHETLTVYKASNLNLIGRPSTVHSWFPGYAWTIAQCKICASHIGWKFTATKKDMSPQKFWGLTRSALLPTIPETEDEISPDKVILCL
Sequence of Tyrosine-protein kinase BTK (Q06187 whole entry): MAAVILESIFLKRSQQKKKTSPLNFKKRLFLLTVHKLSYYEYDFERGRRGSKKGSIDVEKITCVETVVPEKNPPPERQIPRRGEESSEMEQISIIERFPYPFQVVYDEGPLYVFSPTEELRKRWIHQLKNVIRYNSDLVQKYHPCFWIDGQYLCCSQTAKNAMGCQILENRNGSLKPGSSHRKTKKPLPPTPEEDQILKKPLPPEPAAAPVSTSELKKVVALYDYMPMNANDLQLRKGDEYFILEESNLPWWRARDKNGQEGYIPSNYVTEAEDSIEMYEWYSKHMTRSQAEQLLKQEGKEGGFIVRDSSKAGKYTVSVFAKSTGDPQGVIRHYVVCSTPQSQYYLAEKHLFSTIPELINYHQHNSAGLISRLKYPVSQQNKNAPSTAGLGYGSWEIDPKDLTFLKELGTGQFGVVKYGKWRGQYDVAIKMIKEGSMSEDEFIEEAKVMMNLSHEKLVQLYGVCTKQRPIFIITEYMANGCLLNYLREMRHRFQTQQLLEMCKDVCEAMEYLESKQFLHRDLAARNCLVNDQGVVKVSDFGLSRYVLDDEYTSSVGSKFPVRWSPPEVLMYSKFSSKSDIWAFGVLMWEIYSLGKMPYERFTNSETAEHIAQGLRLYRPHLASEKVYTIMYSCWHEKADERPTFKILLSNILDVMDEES

For Cc1cc(-c2nc(Nc3cnn(C4CCN(CC5CCN(c6ccc7c(c6)C(=O)N(C6CCC(=O)NC6=O)C7=O)CC5)CC4)c3)ncc2F)ccc1CNC(=O)c1cn(C(C)(C)C)nn1 (stereo not given), which AUC(0-inf) [1] is on record?
Its AUC(0-inf) is 3090 ng·h/mL.

What about the Activity [2] of the same compound?
Its Activity is “Active”.

What about the Vd [3] of the same compound?
The Vd was 9.29 L/kg.

What about the Ki [4] of the same compound?
The Ki was 152 nM.

And the inhibition [5]?
The inhibition was “Active”.

What about the Activity [6] of the same compound?
The Activity was “Active”.

And the Activity [7]?
The Activity was “Active”.

What about the Activity [8] of the same compound?
Its Activity is “Active”.

What about the clearance [9] of the same compound?
Its clearance is 15.2 mL/min/kg.

And the AUC(0-inf) [10]?
The AUC(0-inf) was 2350 ng·h/mL.

What about the AUC(0-t) at 48 h [11] of the same compound?
The AUC(0-t) at 48 h was 2340 ng·h/mL.

What about the Activity [12] of the same compound?
The Activity was “Non-Toxic”.

What about the Activity [13] of the same compound?
Its Activity is 12.3 nM.

And the AUC(0-t) at 48 h [14]?
Its AUC(0-t) at 48 h is 2800 ng·h/mL.

And the Activity [15]?
Its Activity is “Active”.

What about the Cmax [16] of the same compound?
The Cmax was 645 ng/mL.

And the Activity [17]?
The Activity was “Tde”.

What about the Activity [18] of the same compound?
Its Activity is “Active”.

What about the half-life [19] of the same compound?
The half-life was 814 min.

What about the Activity [20] of the same compound?
Its Activity is “Active”.
